Literature values in publication PMC5051147, “Ester Hydrolysis Differentially Reduces Aconitine-Induced Anti-hypersensitivity and Acute Neurotoxicity: Involvement of Spinal Microglial Dynorphin Expression and Implications for Aconitum Processing” (Frontiers in Pharmacology, 2016).

Key:
mice = system: mice; design: method as in Zheng et al., 1994; conditions: subcutaneous, ref Zheng et al., 1994; cited from earlier work
rats = system: rats; design: method as in Zheng et al., 1994; conditions: subcutaneous, ref Zheng et al., 1994; cited from earlier work
[1] = design: method as in Zheng et al., 1994; conditions: intracerebroventricular injection; ref Zheng et al., 1994; cited from earlier work
[2] = system: acetic acid and formalin tests; design: method as in Yu et al., 1996; conditions: systemic; ref Yu et al., 1996; cited from earlier work

Row | Structure (SMILES) | ED50 relative to 3-acetylaconitine (times greater) (mice) | ED50 relative to 3-acetylaconitine (times greater) (rats) | Therapeutic index relative to 3-acetylaconitine [1] | Antinociception compared with analogues [2]
1 | CCN1C[C@]2(COC)[C@H](OC(C)=O)C[C@H](OC)C34C1C([C@H](OC)[C@@H]32)[C@]1(O)[C@@H]2[C@H]4C[C@@](O)([C@@H]2OC(=O)c2ccccc2)[C@@H](OC)[C@@H]1OC(C)=O [3,15-diacetylbenzoylaconine] | 12–16 times | 25–30 times | three-fold higher | 
2 | CCN1C[C@]2(COC)[C@H](O)C[C@H](OC)[C@]34C1[C@H]([C@H](OC)[C@H]23)[C@@]1(OC(C)=O)C[C@H](OC)[C@@]2(O)C[C@@H]4[C@@H]1[C@H]2OC(=O)c1ccc(OC)cc1 [yunaconitine] |  |  |  | greater antinociception than bulleyaconitine A and 3-acetylaconitine
